In patent publication US11052118B2, “Enhanced stem cell composition” (Fate Therapeutics, Inc., priority 2011, dated 2021):

Assays:
[1] = test system: CXCR4 mRNA in mobilized peripheral blood CD34+ cells; assay: CXCR4 qPCR using the Applied Biosystems StepOnePlus, mobilized peripheral blood CD34+ cells; assay type: cell-based, human
Protocol: (§1) Real-time PCR transcript quantitation from ex vivo treated cord CD34^+ cells (Stem Cell Technologies, Vancouver, BC, Canada) and mobilized peripheral blood CD34^+ cells (All Cells, LLC, Emoryville, Calif., USA) was performed using the Applied Biosystems StepOne Plus system (Life Technologies Corporation, Carlsbad, Calif., USA) (see FIG. 3). […] After treatment, cells were washed with SFEM and centrifuged at 300 g for 10 minutes.
(§2) Total RNA was then isolated from treated cells using Pico Pure RNA Isolation Kit (Molecular Devices, Sunnyvale, Calif., USA). Complimentary DNA (cDNA) was reverse transcribed from 50 ng of isolated total RNA using the High-Capacity cDNA Reverse Transcription Kit (Life Technologies).
(§3) Real-Time PCR analysis was run on the cDNA samples in duplicate. The reaction mix contained 1 μL Gene Specific Taqman Assay (20λ) and 10 μL Gene Expression Master Mix (Life Technologies) with the remaining volume of 9 μL contained 10 ng cDNA and sterile diH2O.
(§4) CXCR4 results (assay from Table 1) were analyzed using Applied Biosystems StepOne Software v2.1 Analysis software. Average Cts were calculated from the sample replicates and delta-delta Cts (ΔΔCt) were calculated using GAPDH results (assay from Table 1) as a reference gene against a vehicle only sample. […] Error bars depict +/− the Standard Deviation (SD) of the replicate measurements (See FIGS. 1-3, 5, and 6).

[2] = test system: CXCR4 mRNA in human umbilical cord blood derived CD34+ cells; assay: CXCR4 qPCR using the Fluidigm platform; assay type: cell-based; details: 10 μM single agent in SFEM, 4 h, 37° C., compared to DMSO treated cells
Protocol: Real-time PCR transcript quantitation of gene expression from ex vivo treated human umbilical cord blood derived CD34^+ cells (Stem Cell Technologies, Vancouver, BC, Canada) was performed using the BioMark Dynamic Array microfluidics system (Fluidigm Corporation, South San Francisco, Calif., USA).
CD34^+ cells derived from cord blood or mobilized peripheral blood were treated in Serum-Free Expansion Medium (SFEM; e.g., StemSpan® from StemCell Technologies, Inc.) for four hours at 37° C., 5% CO2 with 10 uM prostaglandin pathway agonist alone or in combination with 10 uM of a glucocorticoid. Prostaglandin pathway agonists included 16,16-dimethyl PGE2 (dmPGE2), 20-ethyl PGE2 (ePGE2), 15(S)-15-methyl PGE2 (mPGE2), and PGE2. Glucocorticoids included hydrocortisone, dexamethasone, medrysone, alclometasone, or triamcinalone. After treatment, cells were washed with SFEM and centrifuged at 300 g for 10 minutes.
Total RNA was isolated then isolated from treated cells using Pico Pure RNA Isolation Kit (Molecular Devices, Sunnyvale, Calif., USA). […]
Results were analyzed using BioMark Real-Time PCR Analysis software. Average Cts were calculated from the sample replicates and delta-delta Cts (ΔΔCt) were calculated using the mean of 3 reference genes (GAPDH, HPRT1, QARS) against a vehicle only sample. […]

[3] = test system: CXCR4 mRNA in cord blood derived CD34+ cells; assay: CXCR4 qPCR using the Applied Biosystems StepOnePlus, cord blood CD34+ cells; assay type: cell-based, human
Protocol: as §1, §2, §3, §4

[4] = test system: CD34+ cells migrating towards SDF1; assay: SDF-1 transwell migration assay; assay type: cell-based, human; details: cells treated 4 hours at 37° C. with 10 μM, 50 ng/mL SDF1 in lower chamber, 2.5 hours; listed as dmPGE2
Protocol: Transwell migration assays were performed using 96-well chemotaxis chambers, […] pore size polycarbonate membrane (Corning Inc., Corning, N.Y.) in accordance with manufacturer's instructions. Briefly, CD34^+ cells were then treated for 4 hours at 37° C. with 16,16-dimethyl PGE2 (dmPGE2), dmPGE2 and glucocorticoid, or DMSO control at a concentration of 10 μM in StemSpan® media (Stem Cell Technology, Vancouver, Canada). The cells were then washed by centrifugation (300×g for 10 minutes) and resuspended in transwell assay buffer (Phenol Red Free RPMI media (Mediatech), 0.5% lipid free BSA (Sigma-Aldrich) at a concentration of 40,000-60,000 cells/75 μl.
To test the duration of the treatment effects, one portion of treated cells was washed by centrifugation (300×g for 10 minutes) and resuspended in StemSpan® media for 4 hours at 37° C. without dmPGE2, glucocorticoids, or DMSO and then washed again by centrifugation (300×g for 10 minutes) and resuspended in transwell assay buffer (Phenol Red Free RPMI media (Mediatech), 0.5% lipid free BSA (Sigma-Aldrich) at a concentration of 40,000-60,000 cells/75 μl.
Seventy-five μl of cell suspension was added to the upper chamber of the plate, while 235 μl of transwell assay media containing 0 or 50 ng/ml SDF1α (R&D system, Minneapolis, Minn.) was added to the bottom well. […]

[5] = test system: CXCR4 surface protein on CD34+ cells from human bone marrow; assay: CXCR4 surface protein expression by flow cytometry, bone marrow CD34+ cells; assay type: cell-based; details: BM CD34+ cells, 10 μM each agent, 4 hours at 37° C. in SFEM, then 2 hours in SFEM

SMILES: CCCCC(C)(C)[C@H](O)/C=C/[C@H]1[C@H](O)CC(=O)[C@@H]1C/C=C\CCCC(=O)O [16,16-dimethyl PGE2]
- increase in CXCR4 mRNA expression ([1]; CD34+ cells from mobilized peripheral blood, 4 hour treatment in SFEM, 10 μM each agent, against vehicle only sample): 27 fold
- CXCR4 RNA expression ([1]; mPB CD34+ cells, 10 μM, 2 and 4 hours at 37° C. in SFEM, compared to DMSO treated cells): increase
- increase in CXCR4 mRNA expression [2]: 22 fold
- CXCR4 RNA expression ([3]; cord blood CD34+ cells, 10 μM, 2 and 4 hours at 37° C. in SFEM, compared to DMSO treated cells): increase
- increase in CXCR4 mRNA expression ([3]; cord blood derived CD34+ cells, 4 hour treatment in SFEM, 10 μM each agent, against vehicle only sample): 22 fold
- SDF1-driven cell migration (% of cells added), words [4]: increased SDF1-driven cell migration compared to the DMSO control
- increase in the level of CXCR4 protein expression [5]: 12 fold
